According to patent US6495589B2, “Somatostatin antagonists and agonists that act at the SST subtype 2 receptor” (Pfizer Inc., priority 2000, dated 2002):
Ends that are not written are not given here.

Tested on: GH4C1 cells
Assay: Rat pituitary assay for somatostatin receptor antagonists (cAMP content of GH4C1 cells)
Assay type: cell-based
Settings: 100 nM VIP as stimulus
Text: This assay is designed to quantitate the activity of antagonists of somatostatin that interact directly at the somatostatin receptor. The assay facilitates discovery of agents which increase growth hormone secretion by modulating the inhibitory effects of somatostatin. As aforementioned, somatostatin (also abbreviated SRIF) inhibits GH secretion in the anterior pituitary by binding to a high affinity membrane-bound (and G-protein coupled) receptor which is coupled negatively to adenyl cyclase, thereby reducing intracellular levels of cAMP that would otherwise facilitate, for example, secretion/release of GH from cytoplasmic granules. […] The screen is designed to quantitate the ability of test agents to reverse SRIF's inhibition of the elevated intracellular cAMP levels produced by VIP.
In particular, cyclic AMP (cAMP) content of the pituitary cell line GH4C1 was used to differentiate somatostatin agonists from antagonists. […] This afforded a convenient way to conduct a homogenous immunoradiometric assay of cAMP content in cells lysed in situ, following incubation of the cells with test compound. cAMP content in the GH4C1 cells was determined according to the manufacturer's instructions, by comparison with standards at concentrations from 10 to 1,000 nM cAMP. […]
IC50 values are determined by polynomial regression and analzyed using a MACRO program. […]

## VIP: Vasoactive intestinal peptide (Sigma V3628), endogenous peptide that stimulates GH secretion and activates adenylate cyclase (HSDAVFTDNYTRLRKQMAVKKYLNSILN-NH2; ends and bridges not checked; UniProt P01282 125-152, looked up)
  cAMP content of the GH4C1 cells: increased
